{"source": "patent US20100172854A1", "about": "“ANTIBACTERIAL FORMULATIONS” (priority 2007, published 2010)", "key": {"[1]": {"test_system": "Streptococcus mutans ATCC 35668", "assay": "MBC assay", "assay_type": "cell-based", "protocol": "(§1) The S. mutans strains were cultured and maintained on Wilkins-Chalgren Anaerobe Medium (agar and broth) at pH 7.0 supplemented with 1 g/L glucose; all cultures were incubated at 37° C. for 48 h in an atmosphere containing 5% CO2.\n(§2) This assay, normally carried out after an MIC assay, determines the minimum concentration of a compound that is lethal to the micro-organism being tested.\n(§3) These samples were then individually sub-cultured on antibiotic-free agar medium, under the incubation conditions described above. Following incubation they were examined visually for microbial growth."}, "[2]": {"test_system": "Streptococcus mutans ATCC 25175", "assay": "MBC assay", "assay_type": "cell-based", "protocol": "as §1, §2, §3"}, "S. aureus ATCC 12607": {"test_system": "S. aureus ATCC 12607", "assay": "MIC assay", "assay_type": "cell-based", "settings": "Staphylococcus aureus, ATCC12607", "protocol": "(§4) The staphylococci were cultured and maintained on Mueller-Hinton Medium (agar and broth) at pH 7.2; cultures were incubated aerobically at 37° C. for 19-20 hours.\n(§5) This is a standard international method for quantitatively assessing the antimicrobial activity of a compound in a liquid medium. The method used a sterile 96-well microtitre plate, capable of holding about 200 μl of liquid per well. The wells contained liquid culture medium and ranges of decreasing concentrations of the relevant test compound in doubling dilutions (e.g. 1000, 500, 250, 125 . . . μg/ml, etc. down to 0.49 μg/ml). The culture media were as described above.\n(§6) The wells were inoculated with a liquid suspension of freshly grown micro-organism and incubated under the conditions described above. After incubation, the microtitre plate was examined visually (with the aid of a light box) for cloudiness in each well, which would indicate microbial growth. The MIC value was recorded as the lowest concentration of test compound required to inhibit microbial growth, i.e. the lowest concentration for which the liquid in the well remained clear.\n(§7) The assays included both negative (culture medium with no micro-organisms) and positive (culture medium plus diluting solvent plus micro-organism) controls."}, "[3]": {"test_system": "Staphylococcus aureus ATCC 12600", "assay": "MIC assay", "assay_type": "cell-based", "settings": "ATCC12600", "protocol": "as §4, §5, §6, §7"}, "S. aureus CPHL VISA Mu3": {"test_system": "S. aureus CPHL VISA Mu3", "assay": "MIC assay", "assay_type": "cell-based", "settings": "Staphylococcus aureus", "protocol": "as §4, §5, §6, §7"}, "S. aureus CPHL EMRSA 17": {"test_system": "S. aureus CPHL EMRSA 17", "assay": "MIC assay", "assay_type": "cell-based", "settings": "Staphylococcus aureus", "protocol": "as §4, §5, §6, §7"}, "S. aureus ATCC 25923": {"test_system": "S. aureus ATCC 25923", "assay": "MIC assay", "assay_type": "cell-based", "settings": "Staphylococcus aureus, ATCC25923", "protocol": "as §4, §5, §6, §7"}, "S. aureus ATCC 12604": {"test_system": "S. aureus ATCC 12604", "assay": "MIC assay", "assay_type": "cell-based", "settings": "Staphylococcus aureus, ATCC12604", "protocol": "as §4, §5, §6, §7"}, "[4]": {"test_system": "Staphylococcus auricularis ATCC 33753", "assay": "MIC assay", "assay_type": "cell-based", "settings": "ATCC33753", "protocol": "as §4, §5, §6, §7"}, "[5]": {"test_system": "Staphylococcus simulans ATCC 27848", "assay": "MIC assay", "assay_type": "cell-based", "settings": "ATCC27848", "protocol": "as §4, §5, §6, §7"}, "S. aureus ATCC 12606": {"test_system": "S. aureus ATCC 12606", "assay": "MIC assay", "assay_type": "cell-based", "settings": "Staphylococcus aureus, ATCC12606", "protocol": "as §4, §5, §6, §7"}, "[6]": {"test_system": "Staphylococcus xylosus ATCC 29971", "assay": "MIC assay", "assay_type": "cell-based", "settings": "ATCC29971", "protocol": "as §4, §5, §6, §7"}, "[7]": {"test_system": "Staphylococcus capitis ATCC 27840", "assay": "MIC assay", "assay_type": "cell-based", "settings": "ATCC27840", "protocol": "as §4, §5, §6, §7"}, "[8]": {"test_system": "Streptococcus mutans ATCC 35668", "assay": "MIC assay", "assay_type": "cell-based", "settings": "ATCC35668", "protocol": "as §1, §5, §6, §7"}, "[9]": {"test_system": "Streptococcus mutans ATCC 25175", "assay": "MIC assay", "assay_type": "cell-based", "settings": "ATCC25175", "protocol": "as §1, §5, §6, §7"}, "P. granulosum PPR-006": {"test_system": "P. granulosum PPR-006", "assay": "Agar dilution MIC assay", "assay_type": "cell-based, Propionibacterium granulosum", "settings": "Propionibacterium, PPR006", "protocol": "(§8) The propionibacteria were cultured and maintained on Wilkins-Chalgren Anaerobe Medium (agar and broth) at pH 6.0; all cultures were incubated anaerobically at 37° C. for 72 hours.\n(§9) This is a standard international method for quantitatively assessing the antimicrobial activity of a compound in a solid medium. The test compound was prepared to 40× the highest concentration required (e.g. 10 mg/ml for a final concentration of 250 μg/ml) and a series of doubling dilutions were performed in a suitable solvent. A set amount of these antimicrobial stock solutions was then added to molten agar medium (ca. 55° C.), mixed thoroughly, poured into sterile Petri dishes and allowed to cool/set. The culture medium was as described above.\n(§10) A Multipoint™ Inoculator (AQS Manufacturing Ltd, UK) was used to inoculate the plates by spotting the inocula onto the surface of the agar, delivering approximately 1 to 2 μl per spot (yielding 10^5 CFU (colony forming units) per spot).\nThe plate(s) were then incubated under the conditions described above, following which they were examined visually for signs of bacterial growth. The MIC value was ascertained when there was a marked reduction in, or total loss of, growth on the test plate at the lowest concentration as compared to that of the growth on the control plate. […]"}, "P. granulosum PRP-043": {"test_system": "P. granulosum PRP-043", "assay": "Agar dilution MIC assay", "assay_type": "cell-based", "settings": "Propionibacterium, PRP043, resistance phenotype MLS", "protocol": "as §8, §9, §10\n(§11) The plate(s) were then incubated under the conditions described above, following which they were examined visually for signs of bacterial growth. The MIC value was ascertained when there was a marked reduction in, or total loss of, growth on the test plate at the lowest concentration as compared to that of the growth on the control plate.\n(§12) The assays were conducted in triplicate and included a positive control (culture medium, diluting solvent and inoculum)."}, "P. granulosum PRP-019": {"test_system": "P. granulosum PRP-019", "assay": "Agar dilution MIC assay", "assay_type": "cell-based", "settings": "Propionibacterium, PRP019, resistance phenotype MLSK", "protocol": "as §8, §9, §10, §11, §12"}, "P. granulosum PRP-044": {"test_system": "P. granulosum PRP-044", "assay": "Agar dilution MIC assay", "assay_type": "cell-based", "settings": "Propionibacterium, PRP044, resistance phenotype MLS", "protocol": "as §8, §9, §10, §11, §12"}, "P. granulosum PRP-021": {"test_system": "P. granulosum PRP-021", "assay": "Agar dilution MIC assay", "assay_type": "cell-based", "settings": "Propionibacterium, PRP021, resistance phenotype MLS", "protocol": "as §8, §9, §10, §11, §12"}, "[10]": {"test_system": "Propionibacterium granulosum NCTC 11865", "assay": "Agar dilution MIC assay", "assay_type": "cell-based", "settings": "NCTC11865, resistance phenotype None", "protocol": "as §8, §9, §10, §11, §12"}, "P. granulosum PRP-005": {"test_system": "P. granulosum PRP-005", "assay": "Agar dilution MIC assay", "assay_type": "cell-based", "settings": "Propionibacterium, PRP005, resistance phenotype MLSK", "protocol": "as §8, §9, §10, §11, §12"}, "[11]": {"test_system": "Propionibacterium acnes NCTC 737", "assay": "Agar dilution MIC assay", "assay_type": "cell-based", "settings": "Cutibacterium acnes, NCTC737, resistance phenotype None", "protocol": "as §8, §9, §10, §11, §12"}, "P. granulosum PRP-055": {"test_system": "P. granulosum PRP-055", "assay": "Agar dilution MIC assay", "assay_type": "cell-based", "settings": "Propionibacterium, PRP055, resistance phenotype None", "protocol": "as §8, §9, §10, §11, §12"}}}
{"molecule": "Cc1cc(Cc2cc(C)cc(C(C)(C)C)c2O)c(O)c(C(C)(C)C)c1", "note": "[AO 2246, 2,2′-methylene-bis(4-methyl-6-tert-butylphenol)]", "values": [{"measurement": "MIC/MBC Ratio", "setting": "[1]", "value": 0.25}, {"measurement": "MBC", "setting": "[1]; ATCC35668", "value": 31.2, "unit": "µg/mL"}, {"measurement": "MIC/MBC Ratio", "setting": "[2]", "value": 0.5}, {"measurement": "MBC", "setting": "[2]; ATCC25175", "value": 62.5, "unit": "µg/mL"}, {"measurement": "MIC", "setting": "S. aureus ATCC 12607", "value": 1.95, "unit": "µg/mL"}, {"measurement": "MIC", "setting": "[3]", "value": 0.98, "unit": "µg/mL"}, {"measurement": "MIC", "setting": "S. aureus CPHL VISA Mu3", "value": 1.95, "unit": "µg/mL"}, {"measurement": "MIC", "setting": "S. aureus CPHL EMRSA 17", "value": 1.95, "unit": "µg/mL"}, {"measurement": "MIC", "setting": "S. aureus ATCC 25923", "value": 7.8, "unit": "µg/mL"}, {"measurement": "MIC", "setting": "S. aureus ATCC 12604", "value": 1.95, "unit": "µg/mL"}, {"measurement": "MIC", "setting": "[4]", "value": 1.95, "unit": "µg/mL"}, {"measurement": "MIC", "setting": "[5]", "value": 15.6, "unit": "µg/mL"}, {"measurement": "MIC", "setting": "S. aureus ATCC 12606", "value": 1.95, "unit": "µg/mL"}, {"measurement": "MIC", "setting": "[6]", "value": 3.9, "unit": "µg/mL"}, {"measurement": "MIC", "setting": "[7]", "value": 3.9, "unit": "µg/mL"}, {"measurement": "MIC", "setting": "[8]", "value": 7.8, "unit": "µg/mL"}, {"measurement": "MIC", "setting": "[9]", "value": 15.6, "unit": "µg/mL"}, {"measurement": "MIC", "setting": "P. granulosum PPR-006", "value": 1.95, "unit": "µg/mL"}, {"measurement": "MIC", "setting": "P. granulosum PRP-043", "value": 1.95, "unit": "µg/mL"}, {"measurement": "MIC", "setting": "P. granulosum PRP-019", "value": 3.9, "unit": "µg/mL"}, {"measurement": "MIC", "setting": "P. granulosum PRP-044", "value": 3.9, "unit": "µg/mL"}, {"measurement": "MIC", "setting": "P. granulosum PRP-021", "value": 3.9, "unit": "µg/mL"}, {"measurement": "MIC", "setting": "[10]", "value": 1.95, "unit": "µg/mL"}, {"measurement": "MIC", "setting": "P. granulosum PRP-005", "value": 3.9, "unit": "µg/mL"}, {"measurement": "MIC", "setting": "[11]", "value": 3.9, "unit": "µg/mL"}, {"measurement": "MIC", "setting": "P. granulosum PRP-055", "value": 3.9, "unit": "µg/mL"}]}
